We go through 35 compounds from ChEMBL document CHEMBL3301361, “Experimental in vitro DMPK and physicochemical data on a set of publicly disclosed compounds”.

Structures are written as SMILES. ≈ marks a conversion by molar mass, not a printed value.

The nature of this series: physchem. To be noted: pH 7.4 buffer.
For `CNC(=O)[C@H](Cc1ccccc1)NC(=O)[C@H](CC(C)C)[C@H](CSc1ccccc1)C(=O)NO`, the thermodynamic solubility was found to be 11.2 µM (≈ 5.28 µg/mL). The value for `O=C(c1ccc(F)cc1)C1CCN(C(=O)c2ccc(OC(F)(F)F)cc2)CC1` was 11.5 µM (≈ 4.55 µg/mL). The value for `O=C(c1ccc(F)cc1)C1CCN(C(=O)c2cccc(OC(F)(F)F)c2)CC1` was 11 µM (≈ 4.35 µg/mL); that for `O=C(c1ccc(F)cc1)C1CCN(C(=O)c2ccc(F)cc2Cl)CC1` was 14.5 µM (≈ 5.27 µg/mL); that for `COc1ccc(Cl)cc1NC(=O)c1cnccn1` was 12 µM (≈ 3.16 µg/mL). Consider `c1ccc(-c2nnc(-c3ccccc3)o2)cc1`, for which the solubility (thermodynamic) was found to be 15.8 µM (≈ 3.51 µg/mL). The figure for `Clc1ccc(-c2cn3cccnc3n2)cc1` is 20 µM (≈ 4.59 µg/mL); for `O=C(c1ccccc1)C1CCN(C(=O)c2c(F)cccc2F)CC1` it is 13.2 µM (≈ 4.35 µg/mL); for `O=C(c1nnsc1S(=O)(=O)c1ccc(Cl)cc1)N1CCOCC1` it is 17 µM (≈ 6.36 µg/mL). The figure for `CCC(=O)Nc1c(C#N)c2nc3ccccc3nc2n1-c1ccccc1C` is 13.5 µM (≈ 4.8 µg/mL); for `Cc1cccc(C)c1NC(=O)N1CCC(C(=O)c2ccc(F)cc2)CC1` it is 18.6 µM (≈ 6.59 µg/mL); for `COc1cccc(N(C)c2ccnc(Nc3cc(N4CCOCC4)cc(N4CCOCC4)c3)n2)n1` it is 15.5 µM (≈ 7.4 µg/mL). The figure for `Cc1ccc(CO)cc1N(C)c1ccnc(Nc2cc(N3CCOCC3)cc(S(C)(=O)=O)c2)n1` is 15.8 µM (≈ 7.64 µg/mL); for `Cc1cc(F)ccc1CCC1CCN(S(=O)(=O)CC2(N(O)C=O)CCOCC2)CC1` it is 13.8 µM (≈ 6.11 µg/mL).

`COc1cc(N2CCOCC2)ccc1Nc1ncc(Cl)c(-c2cnc3ccccn23)n1` gave a solubility (thermodynamic) of 16.2 µM (≈ 7.08 µg/mL). In turn, `COc1cc(N2CCN(C(C)=O)CC2)ccc1Nc1ncc(F)c(-c2cnc3ccccn23)n1` came in with a thermodynamic solubility of 14.5 µM (≈ 6.69 µg/mL). The figure for `CN(C(=O)Cc1ccc(-n2cnnn2)cc1)[C@@H]1CCN(Cc2ccc(C(F)(F)F)cc2)C[C@@H]1F` is 16.2 µM (≈ 7.72 µg/mL); for `CCc1cc(NC(=O)Cc2ccc(Oc3ccnc4cc(OC)c(OC)cc34)cc2OC)[nH]n1` it is 11 µM (≈ 5.09 µg/mL).

The compound `CCn1cc(NC(=O)Cc2ncc(Oc3ccnc4cc(OC)ccc34)cc2OC)cn1` showed a solubility (thermodynamic) of 17.4 µM (≈ 7.54 µg/mL). The figure for `COc1ccc2c(Oc3cnc(CC(=O)Nc4cn(C)nc4C)c(OC)c3)ccnc2c1` is 15.1 µM (≈ 6.55 µg/mL). The figure for `CCn1cc(NC(=O)Cc2ccc(Oc3ccnc4cc(OC)c(OC)cc34)cn2)cn1` is 15.8 µM (≈ 6.85 µg/mL). The figure for `CS(=O)(=O)Cc1cc(N2CCOCC2)nc(-c2cccc3[nH]ccc23)n1` is 12.9 µM (≈ 4.8 µg/mL); for `CS(=O)(=O)Cc1cc(N2CCOCC2)nc(-c2ccc(NS(C)(=O)=O)cc2)n1` it is 11.2 µM (≈ 4.78 µg/mL).

For `COc1ccc(C(=O)Nc2ccccc2)cc1`, the solubility (thermodynamic) turned out to be 18.2 µM (≈ 4.14 µg/mL). As for `CC(C)C(NC(=O)c1cnoc1C(C)(C)C)C(=O)c1ccc(C#N)cc1` (stereo not given), the solubility (thermodynamic) was 20 µM (≈ 7.07 µg/mL). The figure for `CS(=O)(=O)C1(c2cc(N3CCOCC3)nc(-c3cccc(N)c3)n2)CC1` is 13.2 µM (≈ 4.94 µg/mL); for `N#Cc1ccc(CN2CCN(c3ccc4nnc(C(F)(F)F)n4n3)CC2)cc1` it is 11.5 µM (≈ 4.45 µg/mL). The figure for `C[C@H](COc1cccc2ncnc(Nc3ccc(OCc4ccccn4)c(Cl)c3)c12)N(C)C(=O)CO` is 14.1 µM (≈ 7.16 µg/mL); for `COCCN(C)C(=O)[C@@H](C)Oc1cccc2ncnc(Nc3ccc(Oc4ccc(C)nc4)c(C)c3)c12` it is 11.2 µM (≈ 5.62 µg/mL).

Take `OC1(C#Cc2ccc(-c3ccccc3)cc2)CN2CCC1CC2` (stereo not given): the solubility (thermodynamic) is 14.8 µM (≈ 4.49 µg/mL). Turning to `COc1cc2ncnc(Nc3cccc(Cl)c3F)c2cc1CN(C)CC(N)=O`, the thermodynamic solubility was 13.2 µM (≈ 5.33 µg/mL).

The compound `OC1CCN(CCOc2n[nH]c3ncnc(Nc4ccc(OCc5ccccn5)c(Cl)c4)c23)CC1` yielded a thermodynamic solubility of 13.8 µM (≈ 6.84 µg/mL). The value for `COc1ccccc1Oc1coc2cc(O)ccc2c1=O` was 12.9 µM (≈ 3.67 µg/mL); that for `COc1cc2ncnc(Nc3ccc(F)c(Cl)c3)c2cc1CN(C)[C@H](C)C(N)=O` was 15.5 µM (≈ 6.48 µg/mL); that for `CC(=O)N(C1=C(NCCO)C(=O)c2ccccc2C1=O)c1cccc(Br)c1` was 11.7 µM (≈ 5.02 µg/mL).
